Reference: article PMC9721424, “Novel N-methylsulfonyl-indole derivatives: biological activity and COX-2/5-LOX inhibitory effect with improved gastro protective profile and reduced cardio vascular risks” (Journal of Enzyme Inhibition and Medicinal Chemistry, 2022)
Where two headings read alike, the source gives them in different places.

Columns and labels:
[1] = DPPH free radical assay; type: biochemical; details: 540 nm, relative to Trolox; for DPPH test results (µM trolox equivalent/ 1mg sample ± SD): 30 min; for DPPH anti-oxidant activity: values in text
Protocol: (§1) Preparation of samples was occurred at the following concentrations: Samples 3a, 4a, 5b, 5d and 5e at final concentrations of 0.5 mg/ml in methanol: DMSO 9:1 v/v. Samples 4b and 4d at final concentrations 0.025 mg/ml in methanol: DMSO 9:1 v/v, sample 5a at final concentrations 0.25 mg/ml in methanol: DMSO 9:1 v/v, Sample 4c, 5c and 4e at final concentrations 0.05 mg/ml in methanol: DMSO 9:1 v/v, sample 3b at final concentration 0.75 mg/ml methanol: DMSO 9:1 v/v. A stock solution of 100 µM concentration of Trolox, a standard used in this experiment, was prepared in methanol from which seven concentrations were prepared, including 50, 40, 30, 20, 15, 10 and 5 µM.
The DPPH (2,2-diphenyl-1-picryl-hydrazyl-hydrate) free radical assay was carried out according to the method of Boly et al. 2016[39]. Briefly, freshly prepared DPPH reagent (100 µl, 0.1% in methanol) was added to 100 µl of the sample on 96 well plates (n = 6). The reaction was incubated at room temp for 30 min in the dark. After completion of the incubation time, the reduction in DPPH colour intensity was measured at 540 nm. Data obtained was represented as means ± SD, according to the following equation, percentage inhibition = [(Average absorbance of blank – average absorbance of the test)/(Average absorbance of blank)] *100. The results were recorded using a microplate reader, FluoStar Omega.
Microsoft Excel® was used to analyse the obtained results. The IC50 values were calculated using Graph pad Prism 6® by converting the concentrations to their logarithmic value and selecting the non-linear inhibitor regression equation (log (inhibitor) vs. normalised response – variable slope equation). The methods used and the final test report (R-SO7320) were obtained from Nawah Scientific.

[2] = system: TNF-α in RAW264.7 macrophage cells; experiment: In vitro measurement of TNF-α in RAW264.7 macrophage cells (RT-qPCR); type: cell-based
From the text: Both Lipopolysaccharides (LPS) and hispidin were purchased from Sigma (Sigma-Aldrich, St. Louis, MO, USA)[40]. The foetal bovine serum (FBS) and Dulbecco’s modified Eagle’s medium (DMEM) were purchased from Hyclone (General Electric Healthcare Life Sciences, Mississauga, Canada), penicillin streptomycin (P/S) was purchased from Solarbio (Solarbio life sciences, Beijing, P. R. China). Results of all in vitro anti-inflammatory screening were obtained from the confirmatory diagnostic unit, VACSERA, Egypt.
DMEM was used to cultivate the macrophage cells RAW264.7 (Shanghai BOGO Industrial Co., Ltd., Shanghai, China), and supplemented with 10% FBS and 1% P/S (100 U/ml and […], respectively). […] They were treated with various concentrations of hispidin, then with 1 μg/ml LPS for the indicated time.
PBS (1 ml/well) was used to wash the cells in 24-well plates. […] For the experiments, CL Buffer included MgCl2 (M1028; Sigma) or RNasin Plus RNase Inhibitor (N2615; Promega). Before use, both Bio-Rad SPR and CL buffer were equilibrated to room temperature. […] Carefully, the resulting lysates were collected and either analysed immediately or stored frozen ([…]).
RT-qPCR analysis was performed in one-step SYBR Green RT-qPCR. […] A CFX96 real-time PCR instrument (Bio-Rad) was used under the following protocol: 50uC for 10 min, 95uC for 5 min, 95uC for 10 s/61uC for 15 s/72uC for 30 s.
Total RNA purified from cells was used as an RT-qPCR quantification standard.

[3] = biological target: T1, COX-2 (Ovis aries, UniProt P79208); experiment: COX-2 inhibition, enzyme immune assay (EIA) kit; type: biochemical, ovine; details: for S.I (IC50 COX-1/IC50 COX-2): COX-2 selectivity index; for SI: lab report, COX1/COX2
T1 sequence (P79208 17-603): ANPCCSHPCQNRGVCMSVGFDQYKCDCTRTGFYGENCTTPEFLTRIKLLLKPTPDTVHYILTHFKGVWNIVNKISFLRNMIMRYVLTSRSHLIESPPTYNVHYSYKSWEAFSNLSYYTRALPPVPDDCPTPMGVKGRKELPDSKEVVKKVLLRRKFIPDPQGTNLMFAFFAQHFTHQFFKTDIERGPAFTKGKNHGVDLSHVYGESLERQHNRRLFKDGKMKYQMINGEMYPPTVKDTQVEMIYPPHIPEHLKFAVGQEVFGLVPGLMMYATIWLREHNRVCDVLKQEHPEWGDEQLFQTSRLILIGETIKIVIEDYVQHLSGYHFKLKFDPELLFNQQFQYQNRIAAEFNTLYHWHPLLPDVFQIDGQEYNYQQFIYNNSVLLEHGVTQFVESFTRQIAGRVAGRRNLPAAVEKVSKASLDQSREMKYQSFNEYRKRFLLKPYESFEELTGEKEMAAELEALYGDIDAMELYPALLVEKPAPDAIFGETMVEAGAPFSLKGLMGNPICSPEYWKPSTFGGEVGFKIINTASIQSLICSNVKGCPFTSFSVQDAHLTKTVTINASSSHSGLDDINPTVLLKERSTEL

[4] = biological target: T2, ovine COX-1 (Ovis aries, UniProt P05979); experiment: COX-1 inhibition, enzyme immune assay (EIA) kit
T2 sequence (P05979 25-600): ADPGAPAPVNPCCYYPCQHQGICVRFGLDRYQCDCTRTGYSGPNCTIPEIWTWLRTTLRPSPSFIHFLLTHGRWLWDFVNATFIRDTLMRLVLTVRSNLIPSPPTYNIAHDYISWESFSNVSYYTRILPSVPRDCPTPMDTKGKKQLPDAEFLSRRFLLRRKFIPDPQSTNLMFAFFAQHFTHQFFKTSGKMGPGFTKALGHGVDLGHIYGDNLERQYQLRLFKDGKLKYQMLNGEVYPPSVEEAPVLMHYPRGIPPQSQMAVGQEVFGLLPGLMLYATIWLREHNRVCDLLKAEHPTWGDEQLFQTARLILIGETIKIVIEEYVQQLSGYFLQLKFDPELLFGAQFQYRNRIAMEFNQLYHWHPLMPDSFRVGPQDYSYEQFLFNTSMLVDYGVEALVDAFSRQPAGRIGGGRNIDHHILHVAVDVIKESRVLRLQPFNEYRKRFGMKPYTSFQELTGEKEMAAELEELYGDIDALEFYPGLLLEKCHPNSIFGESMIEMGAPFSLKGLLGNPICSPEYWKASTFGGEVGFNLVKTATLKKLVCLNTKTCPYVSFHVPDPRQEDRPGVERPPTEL
From the text: Colorimetric enzyme immunoassay (EIA) kits were done to screen for the isozyme-specific inhibition.

[5] = biological target: T3, 5-LOX enzyme (Homo sapiens, UniProt P09917); experiment: 5-LOX inhibition, Human Lipoxygenase Inhibitor Screening Assay (EIA) kit; type: biochemical
T3 construct: purchased Cayman Chemical K980-100
T3 sequence (P09917 1-674): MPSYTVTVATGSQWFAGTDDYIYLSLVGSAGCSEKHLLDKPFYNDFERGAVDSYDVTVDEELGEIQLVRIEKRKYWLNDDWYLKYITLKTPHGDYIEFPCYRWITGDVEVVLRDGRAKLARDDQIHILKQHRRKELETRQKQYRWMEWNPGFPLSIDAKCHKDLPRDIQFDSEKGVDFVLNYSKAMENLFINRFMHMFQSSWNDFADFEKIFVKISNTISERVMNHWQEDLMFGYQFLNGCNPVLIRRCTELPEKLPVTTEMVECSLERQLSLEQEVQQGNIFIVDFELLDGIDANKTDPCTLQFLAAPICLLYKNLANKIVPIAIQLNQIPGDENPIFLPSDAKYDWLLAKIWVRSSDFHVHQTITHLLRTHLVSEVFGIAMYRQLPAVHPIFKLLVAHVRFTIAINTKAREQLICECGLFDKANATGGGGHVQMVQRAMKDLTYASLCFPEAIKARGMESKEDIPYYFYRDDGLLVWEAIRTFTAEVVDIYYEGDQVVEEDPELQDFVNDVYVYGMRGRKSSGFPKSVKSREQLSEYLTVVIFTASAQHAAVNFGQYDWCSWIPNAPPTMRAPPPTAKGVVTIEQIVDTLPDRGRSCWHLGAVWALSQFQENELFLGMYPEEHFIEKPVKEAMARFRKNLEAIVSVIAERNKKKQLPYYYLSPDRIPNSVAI
Protocol: The ability of the test compounds to inhibit the 5-LOX enzyme (IC50 value, μM) was detected using the Cayman Human Lipoxygenase Inhibitor Screening Assay (EIA) kit (catalog no. K980-100, Cayman Chemical). The IC50 values of test compounds were measured in µM according to the manufacturer’s instructions and reported method.

[6] = system: Salmonella enterica (ATCC 14028); experiment: Disc diffusion antimicrobial screening, Salmonella enterica; type: cell-based; details: 100 µg/disc
Protocol: (§2) All compounds were screened for their antimicrobial activity at the Microbiology and Immunology Department, Faculty of Pharmacy, Beni-Suef University. The antimicrobial activity screening was carried out using the disc diffusion method, as described earlier, with some adjustments.
(§3) For each indicator microbe, a solution of half McFarland turbidity was prepared in sterile saline, followed by surface streaking of the strains on Mueller-Hinton agar with a sterile cotton swab. Then, sterile filter paper discs (5 mm diameter) preloaded with 100 µg of each compound were applied to the surface of the pre-inoculated plates. Then, the plates were chilled at 4 °C for 100 min before being incubated overnight at the proper temperature for microbial growth. Finally, the diameter of the inhibition zones around each disc was measured to evaluate the antimicrobial activity of the compounds. Ciprofloxacin was used as a standard antibacterial agent at a concentration of 20 µg/disc. Furthermore, DMSO-loaded discs were used as a negative control.

[7] = system: Escherichia coli (E. coli) (ATCC 25922); experiment: Disc diffusion antimicrobial screening, E. coli; type: cell-based; details: 100 µg/disc
Protocol: as §2, §3

[8] = Dissolution of DPPH samples in DMSO/methanol; type: physicochemical; details: DPPH sample preparation, methanol: DMSO 9:1 v/v
Protocol: as §1

Compound	DPPH test results (µM trolox equivalent/ 1mg sample ± SD) [1]	DPPH anti-oxidant activity [1] [µM Trolox equivalent/mg]	TNF-α fold change [2]	S.I (IC50 COX-1/IC50 COX-2) [3]	SI [3]	melting point [°C]	IC50 ([4]; IC50 COX-1) [µM]	COX1 %inh ([4]; conc 0.1 (μM)) [%]	COX1 %inh ([4]; conc 1 (μM)) [%]	COX1 %inh ([4]; conc 10 (μM)) [%]	COX1 %inh ([4]; conc 100 (μM)) [%]	IC50 [5] [µM]	5-LOX %inh ([5]; conc 0.1 (μM)) [%]	5-LOX %inh ([5]; conc 1 (μM)) [%]	5-LOX %inh ([5]; conc 10 (μM)) [%]	5-LOX %inh ([5]; conc 100 (μM)) [%]	antibacterial activity against Salmonella enterica [6]	antibacterial activity against E. coli [7]	IC50 ([4]; read-out: IC50 COX-1) [µM]	solubility of sample in DMSO and methanol [8]
Cc1ccc(NC(=S)N/N=C/c2cn(S(C)(=O)=O)c3ccccc23)cc1 [Compound 4d, (E)-2{[1-(methylsulfonyl)-1H-indol-3yl]methylene}-N-(p-tolyl)hydrazinecarbothioamide]	389.82 ± 19.25 µM trolox equivalent/ 1mg sample	389.82	0.19	2.38	2.375	237 to 239	17.1 ± 0.49	7.22	13.4	36.4	75.8	17.9 ± 0.95	4.88	12.5	33.7	77.2	–	–	–	–
CCNC(=S)N/N=C/c1cn(S(C)(=O)=O)c2ccccc12 [Compound 4b, (E)-N-Ethyl-2{[1-(methylsulfonyl)-1H-indol-3yl]methylene}-hydrazinecarbothioamide]	426.65 ± 28.02 µM trolox equivalent/ 1mg sample	426.65	–	–	0.236	240 to 242	28.5 ± 0.8	3.74	8.96	27.4	73.3	29.2 ± 1.54	4.17	11.6	30.5	70.1	selective antibacterial activity	selective antibacterial activity	–	–
CCN1CC(=O)S/C1=N\N=C\c1cn(S(C)(=O)=O)c2ccccc12 [Compound 5b]	–	–	0.18	0.25	0.249	230 to 232	–	7.23	15.2	31.1	73.6	47.8 ± 2.53	1.82	3.84	15.1	73.1	–	–	22.2 ± 0.63	didn’t dissolve in DMSO nor in methanol
